Assay: method code SF, from PMID: 3778562

Compound | logP
O=c1c(O)c(-c2ccc(O)c(O)c2)oc2cc(O)ccc12 | 2.53
O=C1C[C@@H](c2ccc(O)c(O)c2)Oc2cc(O)ccc21 | 1.94
O=C(O[C@H]1Cc2c(O)cc(O)cc2O[C@@H]1c1ccc(O)c(O)c1)c1ccc(F)cc1 | 3.64
O=c1c(O)c(-c2ccc(O)cc2)oc2cc(O)cc(O)c12 | 3.39
N#CCCO[C@H]1Cc2c(O)cc(O)cc2O[C@@H]1c1ccc(O)c(O)c1 | 0.96
C[C@@H]1O[C@@H](Oc2c(-c3ccc(O)c(O)c3)oc3cc(O)cc(O)c3c2=O)[C@H](O)[C@H](O)[C@H]1O | 1.78
COc1cc(OC)c2c(c1)OC(c1ccc(OC)c(OC)c1)C(OC)C2 (configuration not stated) | 3.68
O=C(OC1Cc2c(O)cc(O)cc2OC1c1ccc(O)c(O)c1)c1ccc(O)c(O)c1 (configuration not stated) | 2.45
Oc1cc(O)c2c(c1)OC(c1ccc(O)c(O)c1)C(O)C2O (configuration not stated) | 0.95
COc1ccc(-c2cc(=O)c3c(O)cc(O)cc3o2)cc1O | 3.1
Oc1cc(O)c2c(c1)O[C@@H](c1ccc(O)c(O)c1)C(OCO[C@@H]1Cc3c(O)cc(O)cc3O[C@H]1c1ccc(O)c(O)c1)C2 (some centres not stated) | 2.15
O=C(O[C@H]1Cc2c(O)cc(O)cc2O[C@@H]1c1ccc(O)c(O)c1)c1ccccc1 | 3.44
CCCCCCCCCCCCCCCCCCO[C@H]1Cc2c(O)cc(O)cc2O[C@@H]1c1ccc(O)c(O)c1 | 9.91
Oc1cc(O)c2c(c1)OC(c1ccc(O)c(O)c1)C(OCCCc1ccccc1)C2 (configuration not stated) | 3.78
CCCO[C@H]1Cc2c(O)cc(O)cc2O[C@@H]1c1ccc(O)c(O)c1 | 2.12
O=C1C[C@@H](c2cccc(O)c2)Oc2cc(O)cc(O)c21 | 2.51
C[C@@H]1O[C@@H](O[C@H]2[C@H](Oc3cc(O)c4c(c3)O[C@H](c3ccc(O)cc3)CC4=O)O[C@H](CO)[C@@H](O)[C@@H]2O)[C@H](O)[C@H](O)[C@H]1O | -0.44
O=c1c(O)c(-c2cccc(O)c2)oc2cc(O)ccc12 | 2.51
CCCCCCCCCCCCO[C@H]1Cc2c(O)cc(O)cc2O[C@@H]1c1ccc(O)c(O)c1 | 6.79
O=C1C[C@@H](c2ccc(O)c(O)c2)Oc2cccc(O)c21 | 2.81
O=C(O)CCC(=O)O[C@H]1Cc2c(O)cc(O)cc2O[C@@H]1c1ccc(O)c(O)c1 | 1.41
CCCCCCCCCCCCCCCC(=O)O[C@H]1Cc2c(O)cc(O)cc2O[C@@H]1c1ccc(O)c(O)c1 | 8.7
O=c1cc(-c2ccc(O)c(O)c2)oc2cc(O)ccc12 | 1.94
CCCCCCCCCC(=O)O[C@H]1Cc2c(O)cc(O)cc2O[C@@H]1c1ccc(O)c(O)c1 | 5.58

Compound | logP
O=c1cc(-c2ccccc2)oc2cc(O)cc(O)c12 | 3.52
O=C1C[C@@H](c2ccc(O)c(O)c2)Oc2cc(O)cc(O)c21 | 2.02
CC(=O)Oc1ccccc1C(=O)OC1Cc2c(O)cc(O)cc2OC1c1ccc(O)c(O)c1 (configuration not stated) | 2.87
COc1ccc(-c2oc3cc(O)cc(O)c3c(=O)c2O)cc1 | 3.97
CCCCCCCO[C@H]1Cc2c(O)cc(O)cc2O[C@@H]1c1ccc(O)c(O)c1 | 4.2
O=C(Nc1ccccc1)OC1Cc2c(O)cc(O)cc2OC1c1ccc(O)c(O)c1 (configuration not stated) | 3.05
CO[C@H]1Cc2c(O)cc(O)cc2O[C@@H]1c1ccc(O)c(O)c1 | 1
CCCCO[C@H]1Cc2c(O)cc(O)cc2O[C@@H]1c1ccc(O)c(O)c1 | 2.64
COc1ccc(-c2oc3ccccc3c(=O)c2O)cc1OC | 4.17
O=C1C[C@@H](c2ccc(O)cc2)Oc2cc(O[C@H]3O[C@@H](CO)[C@H](O)[C@@H](O)[C@@H]3O)cc(O)c21 | -0.44
O=C(Cc1ccccc1)O[C@H]1Cc2c(O)cc(O)cc2O[C@@H]1c1ccc(O)c(O)c1 | 3.09
NCCCOC1Cc2c(O)cc(O)cc2OC1c1ccc(O)c(O)c1 (configuration not stated) | 0.52
O=C1CC(c2ccc(O)cc2)Oc2cc(O)cc(O)c21 (stereo in doubt) | 2.52
CCCC(=O)O[C@H]1Cc2c(O)cc(O)cc2O[C@@H]1c1ccc(O)c(O)c1 | 2.47
O=c1c(O)c(-c2ccc(O)cc2)oc2cc(O)ccc12 | 3.02
COc1ccc(-c2cc(=O)c3c(O)cc(O[C@@H]4O[C@H](CO[C@@H]5O[C@@H](C)[C@H](O)[C@@H](O)[C@H]5O)[C@@H](O)[C@H](O)[C@H]4O)cc3o2)cc1O | 0.14
O=c1c(O)c(-c2ccc(O)cc2O)oc2cc(O)cc(O)c12 | 2.61
CCCCCCCCCCCCCCCCO[C@H]1Cc2c(O)cc(O)cc2O[C@@H]1c1ccc(O)c(O)c1 | 8.87
O=c1cc(-c2ccc(O)cc2)oc2cc(O)cc(O)c12 | 3.02
O=c1cc(-c2ccc(O)c(O)c2)oc2cccc(O)c12 | 3.31
COc1cc(OC)c2c(c1)O[C@H](c1ccc(OC)c(OC)c1)[C@@H](O)C2 | 3.1
COc1ccc([C@@H]2CC(=O)c3c(O)cc(O)cc3O2)cc1O | 2.6
Cc1cc(C)c2c(c1)O[C@H](c1ccc(C)c(C)c1)[C@@H](O)C2 | 3.1

Reference: the SangsterLogP compilation
